Read-outs that look alike come from different tables or passages of the source. A value given as a limit tells only on which side of the number the result lay.

15 compounds from paper PMC7144106, “The Evolution of Pleconaril: Modified O-Alkyl Linker Analogs Have Biological Activity towards Coxsackievirus B3 Nancy” (Molecules, 2020) can be followed below.

Holding throughout (type): cell-based
One series can be described thus: in vitro. The conditions noted are these: for CC50 at 24 h: African green monkey; for CC50 at 72 h: dog. The method, then: The microtetrazolium test (MTT) was used to study the cytotoxicity of the compounds [24]. The experiment was repeated three times. Vero cells were seeded in 96-well plates in Eagles minimal essential medium (MEM) supplemented with 10% FBS. After 24 h, the media was removed, and the wells were washed with saline. Compounds were dissolved in DMSO, and a series of three-fold dilutions of each compound and pleconaril (1000-4 µg/mL) in MEM without FBS were prepared and added to the cells in quadriplicates (200 µL per well). The maximal concentration of DMSO was 0.5% MEM with 0.5% DMSO and was added to cell control wells. Cells were incubated for 24 h at 37 °C in 5% CO2 in the presence of the dissolved compounds. The cells were then washed with saline, and a solution of 3-(4,5-dimethylthiazolyl-2) 2,5-diphenyltetrazolium bromide (ICN Biochemicals Inc., Aurora, OH, USA) (0.5 µg/mL) in MEM was added to the wells (100 µL per well). After 2 h of incubation at 37 °C in 5% CO2, the supernatant from wells was discarded, and the formazan residue was dissolved in DMSO (100 µL per well). The optical density of cells was then measured on a Victor 21,440 multifunctional reader (Perkin Elmer, Turku, Finland) at a wavelength of 535 nm and plotted against the concentration of the compounds to generate the dose–response curve. The 50% cytotoxic dose (CC50) of each compound (i.e., the compound concentration that causes the death of 50% of cells in a culture, or decreases the optical density twice as compared to the control wells) was calculated using four-parameter logistic nonlinear regression model. For some compounds (35a and 35b) cytotoxicity towards MDCK cell line was determined using the procedure above, but the cells were exposed to compounds for 72 h.

In series [1] the test system is coxsackievirus B3 strain Nancy. The experiment in a line: Viral yield reduction assay against CVB3 in Vero cells. The conditions noted are these: for IC50: Vero cells, viral yield reduction, MOI 0.01, 24 h, read-out: IC50 towards CVB3.
Series [2] relates to influenza virus A/Puerto Rico/8/34 (H1N1). Kind of series: Antiviral activity against IAV, hemagglutination test in MDCK cells. The conditions noted are these: for IC50: MDCK cells, hemagglutination test, 72 h, read-out: IC50 Towards IAV.

`CCOC(=O)c1cc(N2CCN(c3ccc(-c4noc(C(F)(F)F)n4)cc3C)CC2)on1` [Compound 28c, Ethyl 5-(4-(2-methyl-4-(5-(trifluoromethyl)-1,2,4-oxadiazol-3-yl)phenyl)piperazin-1-yl)isoxazole-3-carboxylate]: the cytotoxic concentration (CC50) at 24 h in the series “in vitro” is ~53.2 µM. Further, the IC50 in series [1] (Enterovirus B) is 48.7 ± 4.4 µM.
The like results for `Cc1cc(CN2CCN(c3ccc(-c4noc(C(F)(F)F)n4)cc3C)CC2)on1` [Compound 28b, 3-(3-Methyl-4-(4-((3-methylisoxazol-5-yl)methyl)piperazin-1-yl)phenyl)-5-(trifluoromethyl)-1,2,4-oxadiazole] were, in that order, 2460 ± 171 µM and 41.7 ± 2.1 µM.
Take `Cc1cc(-c2noc(C(F)(F)F)n2)ccc1N1CCN(C(=O)c2c(-c3ccccc3)noc2C)CC1` [Compound 35b, (5-Methyl-3-phenylisoxazol-4-yl)(4-(2-methyl-4-(5-(trifluoromethyl)-1,2,4-oxadiazol-3-yl)phenyl)pi-perazin-1-yl)methanone]: in the series “in vitro”, the CC50 at 24 h is 2010 ± 121 µM and the 50% cytotoxic concentration (CC50) at 72 h was > 604 µM. The IC50 in series [1] (Enterovirus B) was determined as 16.1 ± 1.1 µM. In series [2], the “activity against the influenza virus A (in words)” value is “inactive” and the IC50 was > 604 µM.
With `CCOC(=O)c1cc(CCCSc2ccc(-c3noc(C(F)(F)F)n3)cc2C)on1` [Compound 6a, 3-(3-Methyl-4-((3-(3-carbethoxy-isoxazol-5-yl)propyl)thio)phenyl)-5-(trifluoromethyl)-1,2,4-oxadia-zole], the CC50 at 24 h in “in vitro” stood at 485 ± 20.1 µM. In addition, the IC50 in series [1] (Enterovirus B) is 21 ± 1.5 µM.
Taken in the same sequence, the figures for `CCOC(=O)c1cc(CCC(=O)Nc2ccc(-c3noc(C(F)(F)F)n3)cc2C)on1` [Compound 20a, Ethyl 5-(3-((2-methyl-4-(5-(trifluoromethyl)-1,2,4-oxadiazol-3-yl)phenyl)amino)-3-oxopropyl)isoxa-zole-3-carboxylate] were 1720 ± 70.5 µM and 18.2 ± 1.6 µM.
The like results for `Cc1cc(-c2noc(C(F)(F)F)n2)ccc1NC(=O)CCc1cc(C(=O)N(C)C)no1` [Compound 21, N,N-dimethyl-5-(3-((2-methyl-4-(5-(trifluoromethyl)-1,2,4-oxadiazol-3-yl)phenyl)amino)-3-oxopro-pyl)isoxazole-3-carboxamide] were, in that order, 1690 ± 70.7 µM and 6.8 µM.
The like results for `Cc1cc(-c2noc(C(F)(F)F)n2)ccc1N1CCN(c2cc(C(=O)N(C)C)no2)CC1` [Compound 28a, N,N-Dimethyl-5-(4-(2-methyl-4-(5-(trifluoromethyl)-1,2,4-oxadiazol-3-yl)phenyl)piperazin-1-yl)iso-xazole-3-carboxamide] were, in that order, 1870 ± 90.4 µM and 9.1 ± 0.7 µM.
`Cc1cc(CCC(=O)Oc2ccc(-c3noc(C(F)(F)F)n3)cc2C)on1` [Compound 12b, 2-Methyl-4-(5-(trifluoromethyl)-1,2,4-oxadiazol-3-yl)phenyl 3-(3-methylisoxazol-5-yl)propanoate] had a CC50 at 24 h in “in vitro” of 464 ± 30.3 µM. Besides, in series [1] (Enterovirus B), the IC50 amounted to 13.1 ± 0.9 µM.
The like results for `Cc1cc(CCCSc2ccc(-c3noc(C(F)(F)F)n3)cc2C)on1` [Compound 6b, 3-(3-Methyl-4-((3-(3-methylisoxazol-5-yl)propyl)thio)phenyl)-5-(trifluoromethyl)-1,2,4-oxadiazole] were, in that order, > 2610 µM and 15.6 ± 1.4 µM.
`Cc1cc(CCC(=O)Nc2ccc(-c3noc(C(F)(F)F)n3)cc2C)on1` [Compound 20b, N-(2-Methyl-4-(5-(trifluoromethyl)-1,2,4-oxadiazol-3-yl)phenyl)-3-(3-methylisoxazol-5-yl)propan-amide]: half-maximal cytotoxicity in the series “in vitro” (CC50 at 24 h) was put at 1740 ± 120 µM. Also, the half-maximal inhibitory concentration (IC50) in series [1] (Enterovirus B) turned out to be 76.2 ± 5.3 µM.
As to “Methyl 5-(4-(2-methyl-4-(5-(trifluoromethyl)-1,2,4-oxadiazol-3-yl)phenyl)piperazin-1-yl)-isoxazole--3-carboxylate [Compound 28d]”, the IC50 in series [1] stood at 3.9 ± 0.3 µM.
In the series “in vitro”, `Cc1cc(-c2noc(C(F)(F)F)n2)ccc1N1CCN(C(=O)c2cc(-c3ccccc3)no2)CC1` [Compound 35a, (4-(2-Methyl-4-(5-(trifluoromethyl)-1,2,4-oxadiazol-3-yl)phenyl)piperazin-1-yl)(3-phenylisoxazol--5-yl)methanone] had a CC50 at 24 h of 1520 ± 70.3 µM and a CC50 at 72 h of 1450 ± 102 µM. The “activity towards CVB3 (in words)” value in series [1] is “inactive”. Besides, the IC50 in series [1] (Enterovirus B) is > 620 µM. Besides, in series [2], the “activity against the influenza virus A (in words)” value was “inactive” and the IC50 was > 493 µM.
In the series “in vitro”, `Cc1cc(CCCOc2c(C)cc(-c3noc(C(F)(F)F)n3)cc2C)on1` [Pleconaril] showed a CC50 at 24 h of 2400 ± 160 µM. Moreover, the concentration for half-maximal inhibition (IC50) in series [1] (Enterovirus B) was found to be 18.4 ± 1.5 µM.
Regarding `Cc1cc(-c2noc(C(F)(F)F)n2)ccc1SCCCc1cc(C(=O)N(C)C)no1` [Compound 7, N,N-dimethyl-5-(3-((2-methyl-4-(5-(trifluoromethyl)-1,2,4-oxadiazol-3-yl)phenyl)thio)propyl)isoxa-zole-3-carboxamide], the CC50 at 24 h in the series “in vitro” is > 2270 µM. For the same compound, the IC50 in series [1] (Enterovirus B) stood at 18.6 ± 1.3 µM.
On to `CCOC(=O)c1cc(CCC(=O)Oc2ccc(-c3noc(C(F)(F)F)n3)cc2C)on1` [Compound 12a, Ethyl 5-(3-(2-methyl-4-(5-(trifluoromethyl)-1,2,4-oxadiazol-3-yl)phenoxy)-3-oxopropyl)-isoxazole-3-carboxylate], for which the CC50 at 24 h in “in vitro” stood at 683 ± 30.4 µM. Besides, the IC50 in series [1] (Enterovirus B) is 9.1 ± 0.8 µM.
